Test results as given in US20070142317A1, “Topical composition for treatment of skin disorders” (QLT USA, Inc., priority 2003, published 2007).

What was measured:
[1] = test system: monocytes and lymphocytes; test: Toxicity of dAdo to monocytes and lymphocytes; assay type: cell-based
Jurkat T cells = test: TUNEL apoptosis assay, sequential exposure to dCF then dAd (Example 21); assay type: cell-based; settings: no dCF (0 uM)
Experimental: (§1) Thus, it is hypothesized that the sequential exposure of the cells to dCF, followed by deoxyadenosine (dAd) will lead to greater levels of apoptosis than dCF alone. […] The cells were then incubated in dAd for 2 more days. At the end of the treatment period, the cells were harvested for analysis by a TUNEL assay, a flow-cytometry-based method to quantify the percentage of cells that have undergone apoptosis. The level of apoptosis is expressed as “% FITC shift”. As a positive control, the cells were exposed to 5 mM camptothecin for 2 days.

U937 monocytoid cells [2] = test: as above; assay type: cell-based; settings: no dCF (0 uM)
Experimental: as §1

[3] = Calculated concentration in the skin assuming 7% penetration
U-937 cells [4] = test: Cytokine secretion by ELISA (Example 31); assay type: cell-based; settings: for Cytokine Secretion IL-6 pg/ml Mean of 3 Replicates: drug 500 μM, LPS-activated cells
Experimental: (§2) In a search for a topical agent that can locally deplete levels of T-cells in the skin, apoptotic compounds were evaluated for their mechanisms of action. The ability that […] induce apoptosis by the same mechanisms was examined by cytokine secretion. […] Caspase-3 and cytokine (IL-2, IL-6, TNF, and IFN-γ) levels were determined and compared to controls at 23 and 46 hours. FdA was incorporated to evaluate the effect of the halogen group and Ara-C for its overlapping mechanisms of action. […] At the end of the treatment period, the cells were harvested and Caspase-3 induction was determined using a flow-cytometry-based method to quantify the percentage of cells that induced Caspase-3. The level of apoptosis is expressed as “% FITC shift”. Cytokine secretion (IL-2, IL-6, TNF, and IFN-γ) was measured at the same time by ELISA and is expressed in pg/mL. […]

U-937 cells [5] = test: Toxicity to U-937 cells (summary in Example 29); assay type: cell-based
U937 monocytoid cells [6] = test: TUNEL assay, dAd added at different times after dCF wash-out (Example 22); assay type: cell-based; settings: dCF 0 μM 2 days, wash, 2 more days
U937 monocytoid cells [7] = test: TUNEL assay, dAd, adenosine and adenine dose ranging (Example 24); assay type: cell-based; settings: 2 days, no dCF
Experimental: U937 monocytoid cells were cultured in the presence of dAd at various concentrations of dAd (0, 50, 75, 100, 250 and 1000 micromoles/liter). The cells were incubated in dAd for 2 days. At the end of the treatment period, the cells were harvested for analysis by a TUNEL assay, a flow-cytometry-based method to quantify the percentage of cells that have undergone apoptosis. The level of apoptosis expressed as “% FITC shift”. The level of cell cycle arrest is expressed as “% PI shift”. As a positive control, the cells were exposed to 5 mM camptothecin for 2 days.

lymphocytes = settings: cited from earlier work
U937 monocytoid cells [8] = test: TUNEL assay, simultaneous exposure to dCF and dAd (Example 22); assay type: cell-based
Experimental: Methods Simultaneous Exposure—U937 monocytoid cells were cultured in the presence of 0, 1, 2.5, 10, 20, 50, 100, 150, 200, and 250 μM dAdo for 2 days. […] At the end of the treatment period, the cells were harvested for analysis by a TUNEL assay, a flow-cytometry-based method to quantify the percentage of cells that have undergone apoptosis. The level of apoptosis is expressed as “% FITC shift”. As a positive control, the cells were exposed to 5 mM camptothecin for 2 days.

Jurkat cells [9] = test: Cytokine secretion by ELISA (Example 31); assay type: cell-based; settings: for Cytokine Secretion IL-2 pg/ml Mean of 3 Replicates: PHA-activated cells
Experimental: In a search for a topical agent that can locally deplete levels of T-cells in the skin, apoptotic compounds were evaluated for their mechanisms of action. The ability that […] induce apoptosis by the same mechanisms was examined by cytokine secretion. […] At the end of the treatment period, the cells were harvested and Caspase-3 induction was determined using a flow-cytometry-based method to quantify the percentage of cells that induced Caspase-3. The level of apoptosis is expressed as “% FITC shift”. Cytokine secretion (IL-2, IL-6, TNF, and IFN-γ) was measured at the same time by ELISA and is expressed in pg/mL.

Jurkat cells [10] = test: Caspase-3 induction by flow cytometry (Example 31); assay type: cell-based; settings: drug 500 μM, PHA-activated cells
Experimental: as §2

U-937 cells [11] = test: Caspase-3 induction by flow cytometry (Example 31); assay type: cell-based; settings: drug 500 μM, LPS-activated cells
Experimental: as §2

[12] = drug 50 uM, listed as dAd (Acros)
[13] = drug 50 uM, listed as dAd (Sigma)
[14] = drug 100 uM, listed as dAd (Acros)
[15] = drug 100 uM, listed as dAd (Sigma)
[16] = drug 250 uM, listed as dAd (Acros)
[17] = drug 250 uM, listed as dAd (Sigma)
[18] = drug 1000 uM, listed as dAd (Acros)
[19] = drug 1000 uM, listed as dAd (Sigma)
[20] = dAd 10 μM alone (dCF 0), 2 days
[21] = dAd 20 μM alone (dCF 0), 2 days
[22] = dAd 50 μM alone (dCF 0), 2 days
[23] = dAd 100 μM alone (dCF 0), 2 days
[24] = dAd 150 μM alone (dCF 0), 2 days
[25] = dAd 200 μM alone (dCF 0), 2 days
[26] = dAd 250 μM alone (dCF 0), 2 days

SMILES: Nc1ncnc2c1ncn2[C@H]1C[C@H](O)[C@@H](CO)O1 [dAd, 2′-deoxyadenosine]
- concentrations toxic to monocytes and lymphocytes [1]: greater than 100 μM
- % FITC Shift (Jurkat T cells; dAd 10 uM 2 days): 1.6%
- % FITC Shift (Jurkat T cells; dAd 50 uM 2 days): 4.2%
- % FITC Shift (Jurkat T cells; dAd 250 uM 2 days): 22.2%
- % FITC Shift (U937 monocytoid cells [2]; dAd 10 uM 2 days): 1.8%
- % FITC Shift (U937 monocytoid cells [2]; dAd 50 uM 2 days): 2.6%
- % FITC Shift (U937 monocytoid cells [2]; dAd 250 uM 2 days): 92%
- Concentration in the skin assuming 7% penetration ([3]; topical concentration 0.00005%): 0.14 µM
- Concentration in the skin assuming 7% penetration ([3]; topical concentration 0.0005%): 1.39 µM
- Concentration in the skin assuming 7% penetration ([3]; topical concentration 0.005%): 13.93 µM
- Concentration in the skin assuming 7% penetration ([3]; topical concentration 0.01%): 27.86 µM
- Concentration in the skin assuming 7% penetration ([3]; topical concentration 0.05%): 139.31 µM
- Concentration in the skin assuming 7% penetration ([3]; topical concentration 0.1%): 278.62 µM
- Concentration in the skin assuming 7% penetration ([3]; topical concentration 0.5%): 1393.09 µM
- Concentration in the skin assuming 7% penetration ([3]; topical concentration 1%): 2786.18 µM
- Concentration in the skin assuming 7% penetration ([3]; topical concentration 3%): 8358.54 µM
- Concentration in the skin assuming 7% penetration ([3]; topical concentration 5%): 13930.90 µM
- Cytokine Secretion IL-6 pg/ml Mean of 3 Replicates (U-937 cells [4]; 23 hr): 4 pg/mL
- IL-6 inhibition after Caspase-3 induction (U-937 cells [4]; 46 hours, compared to no drug+LPS): 55%
- Cytokine Secretion IL-6 pg/ml Mean of 3 Replicates (U-937 cells [4]; 46 hr): 4 pg/mL
- concentration toxic to U-937 cells on its own (U-937 cells [5]): 250 µM
- % PI Shift (U937 monocytoid cells [6]; 50 μM dAd added 0 hr after wash-out): 1.4%
- % PI Shift (U937 monocytoid cells [6]; 50 μM dAd added 6 hr after wash-out): 1.3%
- % PI Shift (U937 monocytoid cells [6]; 50 μM dAd added 24 hr after wash-out): 1.1%
- % PI Shift (U937 monocytoid cells [6]; 50 μM dAd added 48 hr after wash-out): 2.0%
- concentration at which cell cycle arrest begins (U937 monocytoid cells [7]): 75 µM
- concentration at which apoptosis is induced (U937 monocytoid cells [7]; progressively more at 250 and 1000): 100 µM
- % FITC Shift (U937 monocytoid cells [7]; [12]): 0.7%
- % PI Shift (U937 monocytoid cells [7]; [12]): 2.9%
- % FITC Shift (U937 monocytoid cells [7]; [13]): 1.5%
- % PI Shift (U937 monocytoid cells [7]; [13]): 3.2%
- % FITC Shift (U937 monocytoid cells [7]; drug 75 uM): 1.8%
- % PI Shift (U937 monocytoid cells [7]; drug 75 uM, listed as dAd (Acros)): 7.1%
- % PI Shift (U937 monocytoid cells [7]; drug 75 uM, listed as dAd (Sigma)): 8.8%
- % FITC Shift (U937 monocytoid cells [7]; [14]): 3.5%
- % PI Shift (U937 monocytoid cells [7]; [14]): 9.8%
- % FITC Shift (U937 monocytoid cells [7]; [15]): 9.0%
- % PI Shift (U937 monocytoid cells [7]; [15]): 12.1%
- % FITC Shift (U937 monocytoid cells [7]; [16]): 54.1%
- % PI Shift (U937 monocytoid cells [7]; [16]): 14.6%
- % FITC Shift (U937 monocytoid cells [7]; [17]): 65.8%
- % PI Shift (U937 monocytoid cells [7]; [17]): 12.0%
- % FITC Shift (U937 monocytoid cells [7]; [18]): 80.2%
- % PI Shift (U937 monocytoid cells [7]; [18]): 32.6%
- % FITC Shift (U937 monocytoid cells [7]; [19]): 79.2%
- % PI Shift (U937 monocytoid cells [7]; [19]): 29.5%
- potentiation of the growth inhibitory effect of dCF (lymphocytes): up to 1,000 fold
- concentration at which dAd itself induces apoptosis (U937 monocytoid cells [8]; U937 cells, no dCF): 100 to 200 µM
- concentrations at which dAd alone is toxic (U937 monocytoid cells [8]; absence of dCF, 2 days): > 100 µM
- % FITC Shift (U937 monocytoid cells [8]; dAd 1 μM alone (dCF 0), 2 days): 1.2%
- % PI Shift (U937 monocytoid cells [8]; dAd 1 μM alone (dCF 0), 2 days): 1.1%
- % FITC Shift (U937 monocytoid cells [8]; [20]): 1.8%
- % PI Shift (U937 monocytoid cells [8]; [20]): 1.5%
- % FITC Shift (U937 monocytoid cells [8]; [21]): 1.7%
- % PI Shift (U937 monocytoid cells [8]; [21]): 1.8%
- % FITC Shift (U937 monocytoid cells [8]; [22]): 1.5%
- % PI Shift (U937 monocytoid cells [8]; [22]): 3.8%
- % FITC Shift (U937 monocytoid cells [8]; [23]): 33.7%
- % PI Shift (U937 monocytoid cells [8]; [23]): 15.9%
- % FITC Shift (U937 monocytoid cells [8]; [24]): 78.3%
- % PI Shift (U937 monocytoid cells [8]; [24]): 17.3%
- % FITC Shift (U937 monocytoid cells [8]; [25]): 62.6%
- % PI Shift (U937 monocytoid cells [8]; [25]): 19.7%
- % FITC Shift (U937 monocytoid cells [8]; [26]): 66.4%
- % PI Shift (U937 monocytoid cells [8]; [26]): 17.8%
- Cytokine Secretion IL-2 pg/ml Mean of 3 Replicates (Jurkat cells [9]; 23 hr, drug 500 μM): 17 pg/mL
- IL-2 inhibition (Jurkat cells [9]; 46 hours, compared to no drug+PHA): 61%
- Cytokine Secretion IL-2 pg/ml Mean of 3 Replicates (Jurkat cells [9]; 46 hr, drug 500 μM): 49 pg/mL
- IL-2 concentration (Jurkat cells [9]; Jurkat cells activated by PHA, 46 hours, drug 500 μM): 49 pg/mL
- Caspase-3 Induction % FITC Shift - Mean of 3 Replicates (Jurkat cells [10]; 23 hr): 73%
- Caspase-3 Induction % FITC Shift - Mean of 3 Replicates (Jurkat cells [10]; 46 hr): 92%
- Caspase-3 Induction % FITC Shift - Mean of 3 Replicates (U-937 cells [11]; 23 hr): 67%
- Caspase-3 Induction % FITC Shift - Mean of 3 Replicates (U-937 cells [11]; 46 hr): 43%
